The text below walks through data of patent publication US5773444A, “Quinazolines as inhibitors of endothelin converting enzyme” (Warner-Lambert Company, priority 1997, dated 1998).

Series [1] relates to isolated nonischemic and ischemic rat hearts. The following applies: cited from earlier work; for preischemic increase in coronary perfusion pressure induced by big ET-1 and its proischemic effect: phosphoramidon 100 μM, BQ-123 0.3 μM; for IC50: isolated rat hearts, read-out: IC50, reduction of coronary flow; for time to contracture in globally ischemic rat hearts: pretreatment / 10 nMol big ET-1.

Series [2] relates to ET-1-induced bronchoconstriction and tracheal smooth muscle contraction. The following applies: allergic sheep; cited from earlier work.
For series [3], the system named is mouse model of endotoxic shock. The settings on record: cited from earlier work.
In series [4] the test system is models of acute renal ischemia and subarachnoid hemorrhage in rats. The settings on record: cited from earlier work.
In series [5] the target is T1, endothelin converting enzyme (ECE) (Homo sapiens, UniProt P42892).
T1 construct: ECE was partially purified from EA.hy926 grown in 150 roller; endogenous in cells; host or cells: EA.hy926 (human umbilical vein endothelial cells fused with A549); detergent-solubilised membranes, RCA-I lectin eluate
T1 sequence (P42892 whole entry, the tested form may be a part): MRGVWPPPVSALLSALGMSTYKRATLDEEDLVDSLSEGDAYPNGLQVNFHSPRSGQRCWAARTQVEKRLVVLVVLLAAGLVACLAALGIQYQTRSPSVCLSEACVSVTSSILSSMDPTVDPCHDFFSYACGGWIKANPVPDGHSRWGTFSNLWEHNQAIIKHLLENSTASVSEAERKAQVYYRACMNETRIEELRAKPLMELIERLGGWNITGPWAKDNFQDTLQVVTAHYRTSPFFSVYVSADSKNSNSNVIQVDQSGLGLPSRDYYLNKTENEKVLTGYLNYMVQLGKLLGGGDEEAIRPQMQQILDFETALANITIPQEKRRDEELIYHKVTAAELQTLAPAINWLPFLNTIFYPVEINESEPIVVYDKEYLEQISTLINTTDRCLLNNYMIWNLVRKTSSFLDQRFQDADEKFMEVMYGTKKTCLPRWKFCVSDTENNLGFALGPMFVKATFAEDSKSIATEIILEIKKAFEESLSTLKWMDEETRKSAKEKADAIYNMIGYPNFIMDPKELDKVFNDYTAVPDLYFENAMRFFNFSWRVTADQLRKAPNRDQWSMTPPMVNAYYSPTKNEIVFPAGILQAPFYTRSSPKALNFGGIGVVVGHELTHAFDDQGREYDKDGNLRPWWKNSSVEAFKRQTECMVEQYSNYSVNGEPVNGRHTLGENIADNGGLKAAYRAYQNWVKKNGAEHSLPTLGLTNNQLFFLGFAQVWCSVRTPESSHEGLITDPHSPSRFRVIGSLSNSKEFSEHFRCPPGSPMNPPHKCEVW
Description: ECE assay (partially purified ECE from EA.hy926, ET-1 production by RIA). The class given is biochemical. The following applies: 100 μM thiorphan or 100 nM phosphoramidon.

Series [6] concerns neutral endopeptidase 24.11 (NEP 24.11). Briefly: NEP 24.11 inhibition under ECE assay conditions. The class given is biochemical, human. The following applies: 100 μM thiorphan or 100 nM phosphoramidon. The text has this:
The cell line, EA.hy926, contains neutral endopeptidase 24.11 (NEP 24.11) which also cleaves big ET-1 to ET-1 and c-terminal fragment (manuscript submitted). […] All the data were obtained in the linear range of time-course curves.

The subject of series [7] is intracellular conversion of big ET-1 to ET-1. The settings on record: cultured vascular endothelial cells and smooth muscle cells; cited from earlier work.
In series [8] the test system is pressor response of big ET. The settings on record: micromolar concentrations, in vitro and in vivo; cited from earlier work.
Series [9] deals with vasoconstrictor effects evoked by intravenous injections of big ET-1. The settings on record: anaesthetized pigs; cited from earlier work.
Series [10] has as its system pressor response of big ET-1. The settings on record: ganglion-blocked anesthetized rats; cited from earlier work.
Series [11] relates to effects of big ET-1 in the microvasculature. The following applies: anesthetized hamsters; cited from earlier work.
Series [12] has as its system lethality induced by the intravenous infusion of big ET-1. The settings on record: in vivo; cited from earlier work.
For series [13], the system named is caliber of the basilar artery and systemic arterial pressure. The settings on record: anesthetized dogs, intracisternal big ET-1; cited from earlier work.
The subject of series [14] is rats subjected to coronary occlusion and reperfusion. The settings on record: given IV; cited from earlier work.
The subject of series [15] is hemodynamic actions of big ET-1 in rat brain. The settings on record: cited from earlier work.
The subject of series [16] is gastric mucosal hemorrhagic change. The following applies: 50-500 pmol/kg into the left gastric artery; cited from earlier work.
A further series concerns behavioral effects. The settings on record: intracerebroventricular, rats; cited from earlier work.
The next series concerns blood pressure. The following applies: in vivo; cited from earlier work.

Non-standard residues stand in square brackets, D forms with d. Residues, ends and D or L forms follow the SMILES beside them. No end group written: not given here.

Consider `CC(C)C[C@@H]1NC(=O)[C@@H](C(C)C)NC(=O)[C@@H]2CCCN2C(=O)[C@@H](CC(=O)O)NC(=O)[C@@H](Cc2c[nH]c3ccccc23)NC1=O` [BQ-123] (cyclo(L[dW][dD]P[dV])), for which, in [1], the “preischemic increase in coronary perfusion pressure induced by big ET-1 and its proischemic effect” value is “abolished”. Also, in series [2], the “ET-1-induced bronchoconstriction and tracheal smooth muscle contraction” value is “block ET-1-induced bronchoconstriction and tracheal smooth muscle contraction”. Also, the survival rate entry in [3] is listed as “significantly increased the survival rate”.
Regarding `COc1cccc(Oc2c(NS(=O)(=O)c3ccc(C(C)(C)C)cc3)ncnc2OCCO)c1` [RO 46-2005], the “efficacy in models of acute renal ischemia and subarachnoid hemorrhage” value in series [4] is listed as “effective”.
For the molecule `CC(C)C[C@H](NP(=O)(O)O[C@@H]1O[C@@H](C)[C@H](O)[C@@H](O)[C@H]1O)C(=O)N[C@@H](Cc1c[nH]c2ccccc12)C(=O)O` [phosphoramidon], in series [5], the “effect on ECE activity at NEP-blocking concentration” value is given as “without affecting the ECE activity”. Also, the “NEP 24.11 inhibition” value in [6] was “completely inhibited”. In series [7], the “inhibition of intracellular conversion of big ET-1 to ET-1” value was “inhibit the intracellular conversion of big ET-1 to ET-1”. Further, the “block of pressor response of big ET” value in series [8] is listed as “block the pressor response of big ET”. Moreover, in series [9], the “effect on plasma ET-1 level” value was “did not have any effect on the plasma ET-1 level” and the “vasoconstrictor effects evoked by i.v. big ET-1” value is listed as “inhibit vasoconstrictor effects”. In [10], the “block of pressor response of big ET-1” value is “blocked by phosphoramidon in a dose-dependent manner”. Besides, the “effects of big ET-1 in the microvasculature” value in series [11] was “inhibit the effects of big ET-1”. Also, in series [12], the “lethality induced by the intravenous infusion of big ET-1” value is “suppress the lethality”. Moreover, the “block of big ET-1 effects on basilar artery caliber and systemic arterial pressure” value in [13] was “These effects were blocked by phosphoramidon”. In addition, the “preischemic increase in coronary perfusion pressure induced by big ET-1 and its proischemic effect” value in [1] is “abolished”. The “infarct size 24 hour postischemia” value in series [14] is listed as “significantly reduce infarct size”. In series [15], the “inhibition of hemodynamic actions of big ET-1” value was “phosphoramidon sensitive inhibition of hemodynamic actions of big ET-1”.
Consider “ET-1: potent vasoconstrictor, is a 21 amino acid bicyclic peptide”, for which, in series [1], the IC50 is 12 µM and the “time to contracture in globally ischemic rat hearts” value is on record as “significantly reduced the time to contracture”. For the same molecule, in series [16], the “tissue type plasminogen activator release, platelet activating formation and gastric mucosal hemorrhagic change” value is “increased the tissue type plasminogen activator release and platelet activating formation and induced gastric mucosal hemorrhagic change in a dose-dependent manner”. Also, the behavioral effects entry in the series on behavioral effects was “evoke behavioral effects”.
Turning to “big ET-1: 38 (human) or 39 (porcine) amino acid peptide known as big endothelin or proendothelin (CSCSSLMDKECVYFCHLDIIWVNTPEHVVPYGLGSPRS; ends and bridges not checked; cysteine pairing not given here; UniProt P05305 53-90, looked up)”, in [1], the IC50 was 0.002 µM and the “time to contracture in globally ischemic rat hearts” value is reported as “significantly reduced the time to contracture”. The “potency at raising blood pressure relative to ET-1” value in the series with blood pressure is “equally potent in vivo”.
